The values that follow are results of earlier work, collected in US6358940B1, “Modified 2-Alkoxyestradiol derivatives with prolonged pharmacological activity” (priority 1999, dated 2002).

Data set [1] relates to tubulin polymerization. The note with it: antitubulin activity and cytotoxicity.
The test system of data set [2] is human non-small cell lung cancer line.
For data set [3], the system named is angiogenesis.
The test system of data set [4] is neovascularization. The following applies: in vivo.
The subject of data set [5] is cancer cell cultures.

With `CC=Cc1cc2c(cc1O)CCC1C2CCC2(C)C(O)CCC12` (stereo not drawn) [2-((E)-l-propenyl)-estradiol], in data set [1], the “potency relative to 2-methoxyestradiol” value is listed as “substantially more potent than 2-methoxyestradiol”.

For `CCOc1cc2c(cc1O)CC[C@@H]1[C@@H]2CC[C@]2(C)[C@@H](O)CC[C@@H]12` [2-Ethoxyestradiol], the “potency relative to 2-methoxyestradiol” value in data set [1] was “substantially more potent than 2-methoxyestradiol”.

Regarding `COc1cc2c(cc1O)CC[C@@H]1[C@@H]2CC[C@]2(C)[C@@H](O)CC[C@@H]12` [2-methoxyestradiol], the apoptotic cell death entry in data set [2] (after drug treatment) was “Significant apoptotic cell death”. Moreover, in data set [2] (human non-small cell lung cancer line, with accumulation of p21WAF1/CIP1), the “wild-type p53 levels” value is recorded as “increases wild-type p53 levels”. Further, in data set [3], the “inhibitory effect on angiogenesis” value is listed as “strong inhibitory effect on angiogenesis”. The inhibition of neovascularization entry in data set [4] (mice) is reported as “potent inhibitor of neovascularization”. For the same compound, in data set [4] (mouse), the signs of toxicity entry is on record as “No signs of toxicity”. In addition, the cytotoxicity entry in data set [5] was “cytotoxic”.
